Data set [1] concerns (NZBxNZW)F1 mice. Particulars: for proteinuria (PU): Week 12 observation, vs vehicle (water), laquinimod 25 mg/kg p.o. daily, CTX once weekly i.p., MW U test; for immune complex deposition (ICD) in kidney: end of experiment (12 weeks), vs vehicle, scoring and image analysis. An excerpt: Systemic Lupus Erythematosus (SLE) is a disorder of generalized autoimmunity characterized by defective T cell-mediated responses and the formation of a variety of antibodies reactive to self or altered self-antigens. SLE is mainly characterized by the presence of anti-DNA antibodies. Some of these auto-antibodies combine with the corresponding auto-antigens, forming immune complexes, either in the circulating blood or directly in tissues, resulting in severe damage. Glomerulonephritis induced by immune complexes is in fact the major cause of death in patients with SLE. (NZBxNZW)F1 are lupus-prone mice that develop an SLE-like disease spontaneously including anti-dsDNA antibodies (Abs), proteinuria and Immune Complex Deposits (ICD). The (NZBxNZW)F1 (NZB/W) murine model is the hallmark of spontaneous SLE.
MTX is an antimetabolite drug used in treatment of cancer and autoimmune diseases. It acts by inhibiting the metabolism of folic acid via the inhibition of dihydrofolate reductase and blocks DNA synthesis in rapidly proliferate cells. These actions include immunosuppression.
CTX was applied once weekly in a dose of […] i.p. MTX was applied 3 times a week p.o. at 35 μg/mouse.
Also, body weight changes were recorded weekly and at the end of experiment both kidneys were preserved, one for possible conventional histology and one for immune complex detection (ICD) in glomeruli. Evaluation of ICD was performed by scoring and by image analysis.
80 animals were involved in the study.

The subject of data set [2] is MRL/lpr lupus mouse model. Kind of data set: Non-GLP in vivo evaluation of laquinimod in the MRL/lpr lupus mouse model. Particulars: for kidney glomerulonephritis (histopathology) / salivary gland inflammation (histopathological scoring): laquinimod 5 mg/kg, vs vehicle; for kidney glomerulonephritis (histopathology): MMF 100 mg/kg p.o.; for salivary gland inflammation (histopathological scoring): MMF 100 mg/kg. The method, then:
This study evaluates the efficacy of laquinimod in the MRL/lpr lupus mouse model.
Animals were monitored until their urine proteinuria reached >200 mg/dL at which time they were enrolled in the study.
Proteinuria, ankle and paw diameters, dsDNA autoantibody levels and survival were monitored during in life portion of the study. At termination, blood samples were harvested for determination of dsDNA autoantibody levels, spleens were harvested and weighed then processed to isolate splenocytes which were counted. Kidney, lung, skin, lymph node, salivary gland and joints were harvested, processed for histological examination and scored by a histopathologist blind to the treatments.

Data set [3] has as its system active lupus nephritis patients. The data set is described as follows: Phase IIa clinical trial of laquinimod in combination with standard of care (MMF and steroids) in active lupus nephritis. In kind it is in vivo, human. An excerpt:
Approximately 45 Systemic Lupus Erythematosus patients with active lupus nephritis (LN) are enrolled. [ISN/RPS 2003 classification of lupus nephritis—classes III (A or A/C), IV-S or IV-G (A or A/C), or class V—pure or in combination with class III or IV].
The overall study duration is up to 32 weeks, with the screening phase being up to 4 weeks, the treatment period being 24 weeks and the follow-up period being 4 weeks for all subjects who complete the 24-week treatment period or subjects who prematurely discontinue treatment prior to Week 24 visit.
Placebo arm—2 capsules of placebo. Mycophenolate Mofetil (MMF)
MMF tablets 500 mg. All treatment arms receive MMF at baseline and throughout the study to a target dose of 2 g/day.
Subjects are assessed for study eligibility up to 4 weeks prior to baseline. Eligible subjects are initially randomized in a 1:1 ratio into one of the following two treatment arms: • 1.
Upon approval, randomization into one of the following three treatment arms occurs in a ratio that allows for reaching an overall target enrollment of approximately 15 subjects per treatment arm. Drop-outs are not replaced. • 1.
In addition, all receive IV methylprednisolone 500 mg/day for 3 days followed by 40 mg/day oral prednisolone/prednisone, which is tapered to not more than 10 mg/day by the end of Week 20, on a fixed steroid tapering regimen).
Any of the following results in early termination from the study: • 1. Increase in serum creatinine without improvement in proteinuria from 8 weeks onward (confirmed by repeated measurement within 2 weeks), defined as: • a. Serum creatinine >1.3 mg/dL that is at least 25% higher than the baseline value; and • b. […] Doubling of protein to creatinine ratio compared to baseline and protein to creatinine ratio >3 from Week 8 onwards (confirmed by repeated measurement within 2 weeks. At least one of the measurements should be a 24 hours urine collection). Outcome Measures Response Definitions • 1. Complete response (CR)—protein to creatinine ratio <0.5 and [decreased serum creatinine by at least 25% compared to baseline or serum creatinine <1.3 mg/dL]. • 2. […] BILAG renal response is defined as change from renal A or B at baseline to C or D. • 4. BILAG Substantial Responder (SR) is defined as all systems at last observed value (LOV) are C or D/E providing at least one system is A or B at baseline. Clinical Effect Outcome Measure Renal—System 1. Proportion of Subjects with Complete or Partial Response at Week 24 and the Lack of Treatment Failure

For data set [4], the system named is (NZBxNZW)F1 mice. The data set is described as follows: Survival dose response study of laquinimod in the (NZBxNZW)F1 model for SLE, 37 weeks. The data set is classed as in vivo, mouse. The procedure:
The positive control used was Cytoxan.
CTX was administered intraperitonealy once weekly, (200 μl/mouse). Blood samples were collected on Weeks 1, 5, 15 and 37. Serum samples were prepared for detection of anti-dsDNA antibodies. After 37 weeks (257 days) of treatment, mice were sacrificed.

Data set [5] deals with (NZBxNZW)F1 mice. The data set is described as follows: Confirmation of efficacy of laquinimod in the (NZBxNZW)F1 model for SLE, 13 weeks. The data set is classed as in vivo, mouse. The procedure:
CTX was administered intraperitonealy once weekly, (200 μl/mouse). Blood samples were collected on Weeks 1, 5, and 11. Serum samples were prepared for detection of anti-dsDNA antibodies. After 13 weeks of treatment, mice were sacrificed and immune complex deposits in their kidneys were evaluated.

For data set [6] the following is noted: in vivo; cited from earlier work.
[7] abbreviates: daily oral 0.5 mg or 1 mg laquinimod with standard of care (MMF and steroids).
[8] abbreviates: daily oral 0.5 mg or 1 mg laquinimod with standard of care, during the study period.

In the case of `O=P1(N(CCCl)CCCl)NCCCO1` (stereo not drawn) [CTX, cyclophosphamide], in data set [1], the “proteinuria (PU)” value is reported as “significantly diminished” and the “immune complex deposition (ICD) in kidney” value was “significantly inhibited”.
In the case of `COc1c(C)c2c(c(O)c1C/C=C(\C)CCC(=O)OCCN1CCOCC1)C(=O)OC2` [MMF, 2-morpholinoethyl (E)-6-(1,3-dihydro-4-hydroxy-6-methoxy-7-methyl-3-oxo-5-isogenzofuranyl)-4-methyl-4-hexenoate, reference compound], the “lung BALT hyperplasia (histopathology)” value in data set [2] (MMF 100 mg/kg p.o. vs vehicle) was “significant difference”. In addition, in data set [2], the “kidney glomerulonephritis (histopathology)” value is on record as “significant reductions” and the “salivary gland inflammation (histopathological scoring)” value was “significant reduction”.
Regarding `CN(Cc1cnc2nc(N)nc(N)c2n1)c1ccc(C(=O)N[C@@H](CCC(=O)O)C(=O)O)cc1` [MTX, methotrexate], the “animals died during the treatment period” value in data set [1] (12 weeks treatment, 80 animals in the study) stood at 2. For the same compound, in data set [1] (MTX 35 μg/mouse p.o. 3 times a week, 12 weeks), the “symptoms (proteinuria and immune complex deposition in kidney)” value is recorded as “failed to inhibit”.
On to `CCN(C(=O)c1c(O)c2c(Cl)cccc2n(C)c1=O)c1ccccc1` [laquinimod], for which, in data set [2] (both doses of laquinimod (1 and 5 mg/kg) vs vehicle), the “bone resorption (joint histopathology)” value is recorded as “Significant reductions”. Moreover, the “salivary gland inflammation score, higher vs lower dose” value in data set [2] (laquinimod 5 mg/kg compared with 1 mg/kg) is recorded as “significantly lower score”. Besides, in data set [2] (laquinimod 5 mg/kg vs vehicle), the “cartilage damage (joint histopathology)” value was “significant reduction”, the “joint inflammation (histopathology)” value was “significantly reduced” and the “splenocytes as percent of total spleen cells” value is reported as “significant reduction”. In data set [2], the “kidney glomerulonephritis (histopathology)” value is reported as “significant reductions” and the “salivary gland inflammation (histopathological scoring)” value is “significant reduction”. Also, in data set [2] (laquinimod 1 or 5 mg/kg p.o., trends not significant except sporadic time points), the “measures during the in life phase (proteinuria, ankle and paw diameters, dsDNA autoantibody levels, survival)” value is on record as “trend toward dose dependent efficacy”. In data set [3] (0.5 mg and 1.0 mg laquinimod daily with MMF and steroids), the “effect of the combination of laquinimod, MMF and steroids on active lupus nephritis” value is listed as “significantly more than the additive effect of each agent alone”. Besides, in data set [3] (setting [7]), the “complete response (CR)” value was “results in a complete response”; the “partial response (PR)” value is listed as “results in a partial response”; the proteinuria entry is recorded as “reduces proteinuria”; the tolerability and toxicity entry is “well tolerated and has no toxicity”. Also, in data set [3] (setting [7]), the “treatment of active lupus nephritis” value is given as “effective to treat active lupus nephritis” and the urinary sediments result is on record as “eliminates urinary sediments”. For the same compound, in data set [3] (setting [8]), the “decrease of glomerular filtration rate (GFR) as compared to baseline” value was “no more than 10%”, the “glomerular filtration rate (GFR) reached” value was “greater than 70 ml/min/1.73 m^2” and the “increase of glomerular filtration rate (GFR) as compared to baseline” value was “at least 25%”. Further, the progression of proteinuria result in data set [4] (all doses of laquinimod (0.2, 1, 5, 25 mg/kg p.o. 5 days a week), vs vehicle) is on record as “abrogated the progression of proteinuria”. Also, the survival result in data set [4] (all doses of laquinimod, 37 weeks) was “significant prolongation of survival”. In addition, the “proteinuria, compared with positive control CTX” value in data set [4] (laquinimod doses of 1, 5 and 25 mg/kg) is “as effective as the positive control cyclophosphamide (CTX)”. In data set [4] (laquinimod lowest dose (printed 0.2 mg/ml), compared to the higher doses), the proteinuria result is reported as “abrogated proteinuria but not to the same extent”. The anti-dsDNA levels result in data set [4] (serum, Weeks 1, 5, 15 and 37) is given as “dose dependent reduction in antibody levels over time”. Moreover, in data set [5] (laquinimod 5 mg/kg), the anti-dsDNA levels entry is listed as “behaved similarly to the positive control CTX” and the immune complex deposits result was “behaved similarly to the positive control CTX”. The “disease progression as measured by proteinuria” value in data set [5] (laquinimod 0.2 and 5 mg/kg p.o. 5 days a week, 13 weeks) is listed as “abrogated disease progression”. In addition, in data set [5] (laquinimod low dose 0.2 mg/kg), the “ICD (immune complex deposits)” value is recorded as “did not inhibit”, the “anti-dsDNA Ab titers” value is reported as “did not inhibit” and the proteinuria entry is reported as “prevented increased proteinuria”. Further, the oral bioavailability result in data set [6] is reported as “high”. In addition, in data set [1], the “proteinuria (PU)” value is reported as “significantly diminished” and the “immune complex deposition (ICD) in kidney” value was “significantly inhibited”.

These data come from patent publication US8889661B2 (Teva Pharmaceutical Industries, Ltd., priority 2010, dated 2014).
